According to paper PMC10046961, “High-Throughput Screening Assay for Detecting Drug-Induced Changes in Synchronized Neuronal Oscillations and Potential Seizure Risk Based on Ca^2+ Fluorescence Measurements in Human Induced Pluripotent Stem Cell (hiPSC)-Derived Neuronal 2D and 3D Cultures” (Cells, 2023):
Read-outs that look alike come from different tables or passages of the source. Marks after values point to notes of the source that are not given here.

Experiments:
[1] = system: hiPSC-derived neurons co-cultured with human primary astrocytes in 2D; assay: Ca2+ transient oscillation assay (FDSS), 2D co-culture; format: cell-based; conditions: for effect on peak number / Ca2+ neuronal oscillations, in words: 2D format; for activation at 0.11 µM / activation at 0.33 µM / activation at 1 µM / activation at 3 µM / activation at 1.11 µM / activation at 3.33 µM / activation at 10 µM / activation at 30 µM: Homo sapiens, 1 h, 60 min
Description: (§1) In this study, we used cryopreserved excitatory neurons that were differentiated from human induced pluripotent stem cells (hiPSCs; Cat #: EX-SeV-CW50065) (Elixirgen Scientific, Inc., Baltimore, MD, USA). The hiPSCs used, namely, CW50065 were derived from a healthy person and distributed by the California Institute of Regenerative Medicine Human Induced Pluripotent Stem Cell Repository. Human iPSC-derived excitatory neurons were differentiated from CW50065 using a proprietary cocktail of differentiation-inducing factors called Quick-Neuron™ EX-SeV (Batch number: EX-SeV-CW50065-L; Elixirgen Scientific, Inc.), cryopreserved 3 days after differentiation induction and distributed. Human iPSC-derived excitatory neurons were recovered from cryopreservation and maintained essentially as instructed by the manufacturer.
(§2) Cryopreserved human primary astrocytes (#N7805100, Thermo Fisher Scientific, Waltham, MA, USA) were recovered as instructed by the manufacturer and seeded in a 10 cm dish at the density of 2,000,000 cells. The culture was maintained using the Human Astrocytes Kit (#N7805200, Thermo Fisher Scientific) for 12 days. Half of the culture medium was replaced with fresh medium every 2–3 days during the culture period. These astrocytes were harvested using StemPro™ Accutase™ Cell Dissociation Reagent (#A1110501, Thermo Fisher Scientific) when they reached confluency. These cells were cryopreserved in STEM-CELLBANKER® GMP grade (ZENOGEN PHARMA, Kohriyama, Fukushima Japan) at the density of 2,000,000 cells per vial as working stocks for co-culture with neurons in 2D and 3D conditions described below. After a working stock was recovered, astrocytes were directly mixed with hiPSC-derived neurons for plating without further expansion.
Live neurons (hiPSC neurons) and human primary astrocytes were recovered from cryopreservation as described above and seeded in each well of 384-well plates at the density of 10,000 cells (HiPSC-cortical neurons) and human primary astrocytes at 2500 cells (ratio 4:1). These co-cultures were maintained under the medium conditions recommended by the manufacturer, namely Medium N(G2P), to complete the differentiation of excitatory neurons for the first week. […] Half of the culture medium was replaced with fresh medium every 3–4 days during the culture period.
After the incubation, the culture medium containing Cal-520 was replaced with 50 μL of HBSS supplemented with 0.1 mM MgCl2, 2 mM CaCl2, 10 mM HEPES, and 10 mM glucose and incubated at 37 ℃ for 15 min.
(§3) Prior to the fluorescence measurements, all wells to be measured were treated with 0.04% dimethyl sulfoxide (DMSO) to stabilize the oscillation signal. The first recording started 10 min after the addition of DMSO for each plate for 20 min. The effects of the test compound were recorded again starting 60 min after the administration of compounds, for 20 min.
Twenty-five compounds (Table 1) were first dissolved in either DMSO (most compounds) or distilled water depending on the compound, and further diluted with PBS to produce stock solutions concentrated 10-fold. […] The final concentration of DMSO was adjusted to 0.1%. Changes in the fluorescence intensity (FI) produced by Ca^2+ flux were measured at 37 °C for all wells of a 384-well plate simultaneously using the FDSS/µCell system (#C13299, Hamamatsu Photonics, Hamamatsu, Shizuoka, Japan). The excitation and the emission wavelengths were 470 nm and 540 nm, respectively. The recording duration was 20 min with a sampling frequency of 2 Hz for cells cultured under 2D conditions and 10 Hz for cells cultured under 3D conditions.

[2] = system: hiPSC-derived neurons co-cultured with human primary astrocytes in 3D; assay: Ca2+ transient oscillation assay (FDSS), 3D spheroids; format: cell-based; conditions: 60 min
Description: as §1, §2
We used U-shaped-bottom 96-well plates (#174925, Thermo Fisher Scientific) without any prior coating to make a spheroid in each well. Neurons and astrocytes were seeded and maintained as described for 2D cultures, except for the following modifications. First, neurons and astrocytes were seeded in each well of the 96-well plates at the density of 8000 hiPSC neurons with 8000 human primary astrocytes (8000)/well (ratio 1:1). Second, when the differentiation of excitatory neurons was completed one week after seeding, cells were fed with BrainPhys^TM Neuronal Medium (#05793, […] Technologies, Vancouver, BC, Canada) supplemented with 2% SM1 Neuronal Supplement, 1% N2 Supplement-A, and 10% Neuron culture medium for 5 weeks.
Cells maintained as spheroids (3D) in the U-shaped-bottom 96-well plates were transferred into 384-well spheroid plates (#4516, Merck, Corning, NY, USA) with 25 µL of the culture medium. A Ca^2+-indicating dye solution including […] was prepared using the EarlyTox™ Cardiotoxicity Kit (#R8211, Molecular Devices, LLC, San Jose, CA, USA) according to the manufacturer. Then, the same volume of the dye solution was dispensed into each well.
as §3
Twenty-five compounds (Table 1) were first dissolved in either DMSO (most compounds) or distilled water depending on the compound, and further diluted with PBS to produce stock solutions concentrated 10-fold. Then, 5 μL of each compound solution was injected into each well using an automatic pipetting robot (#4505, ASSIST PLUS pipetting robot, Integra Biosciences Corp., Hudson, NH, USA), so that the final concentration of each compound was 1-fold nominal in the well.

[3] = read-out: Area under the curve - 2D Mean
[4] = read-out: Peak amplitude - 2D Mean
[5] = read-out: Peak-to-peak interval - 2D Mean

## NC[C@H](O)c1ccc(O)c(O)c1 [norepinephrine]
[1]
  effect on peak number / Ca2+ neuronal oscillations, in words: significantly reduced peak number

## C[C@]12N[C@H](Cc3ccccc31)c1ccccc12 [MK-801, Dizocilpine]
[1]; [3]
  activation at 0.11 µM: -35.7%
  activation at 0.33 µM: -57%
  activation at 1 µM: -57.4%
  activation at 3 µM: -79.8%
[1]; read-out: Peak Number—2D Mean
  activation at 0.11 µM: -82.8%
  activation at 0.33 µM: -90.4%
  activation at 1 µM: -84.6%
  activation at 3 µM: -96.3%
[1]; [4]
  activation at 0.11 µM: -41.8%
  activation at 0.33 µM: -63.6%
  activation at 1 µM: -58.6%
  activation at 3 µM: -79.7%
[1]; read-out: Peak width - 2D Mean
  activation at 0.11 µM: -3.2%
  activation at 0.33 µM: -23.6%
  activation at 1 µM: -32.8%
  activation at 3 µM: -70%
[1]; [5]
  activation at 0.11 µM: 204%
  activation at 0.33 µM: 3.6%
  activation at 1 µM: -57.4%
  activation at 3 µM: -100%
[2]; 0.11 µM
  Area under the curve - 3D Mean: 127.3 % change from baseline
  Peak Number—3D Mean: −49.1 * % change from baseline
  Peak amplitude - 3D Mean: 104.7 % change from baseline
  Peak width - 3D Mean: 8.0 % change from baseline
  Peak-to-peak interval - 3D Mean: 76.1 % change from baseline
[2]; 0.33 µM
  Area under the curve - 3D Mean: 66.6 % change from baseline
  Peak Number—3D Mean: −67.3 ** % change from baseline
  Peak amplitude - 3D Mean: 76.2 % change from baseline
  Peak width - 3D Mean: −29.3 % change from baseline
  Peak-to-peak interval - 3D Mean: 66.4 % change from baseline
[2]; 1 µM
  Area under the curve - 3D Mean: -66.9 % change from baseline
  Peak Number—3D Mean: −97.2 ** % change from baseline
  Peak amplitude - 3D Mean: −64.1 % change from baseline
  Peak width - 3D Mean: −85.8 % change from baseline
  Peak-to-peak interval - 3D Mean: −100.0 % change from baseline
[2]; 3 µM
  Area under the curve - 3D Mean: 41.0 % change from baseline
  Peak Number—3D Mean: −84.8 ** % change from baseline
  Peak amplitude - 3D Mean: 67.2 % change from baseline
  Peak width - 3D Mean: −36.8 % change from baseline
  Peak-to-peak interval - 3D Mean: −100.0 % change from baseline

## NCC(=O)O [glycine]
[1]
  effect on peak number / Ca2+ neuronal oscillations, in words: significantly reduced peak number

## OC(c1cc(C(F)(F)F)nc2c(C(F)(F)F)cccc12)C1CCCCN1 (centres unmarked) [Mefloquine]
[1]
  effect on peak number / Ca2+ neuronal oscillations, in words: significantly reduced peak number
[1]; [3]
  activation at 1.11 µM: 14.8%
  activation at 3.33 µM: -47.2%
  activation at 10 µM: -100%
  activation at 30 µM: -100%
[1]; read-out: Peak Number—2D Mean
  activation at 1.11 µM: -30.8%
  activation at 3.33 µM: 16.2%
  activation at 10 µM: -100%
  activation at 30 µM: -100%
[1]; [4]
  activation at 1.11 µM: 0.5%
  activation at 3.33 µM: -21.2%
  activation at 10 µM: -100%
  activation at 30 µM: -100%
[1]; read-out: Peak width - 2D Mean
  activation at 1.11 µM: 15.8%
  activation at 3.33 µM: -47%
  activation at 10 µM: -100%
  activation at 30 µM: -100%
[1]; [5]
  activation at 1.11 µM: 25%
  activation at 3.33 µM: 48.2%
  activation at 10 µM: -100%
  activation at 30 µM: -100%
[2]; 1.11 µM
  Area under the curve - 3D Mean: 159.0 % change from baseline
  Peak Number—3D Mean: 2.8 % change from baseline
  Peak amplitude - 3D Mean: 149.7 % change from baseline
  Peak width - 3D Mean: 2.6 % change from baseline
  Peak-to-peak interval - 3D Mean: 7.1 % change from baseline
[2]; 3.33 µM
  Area under the curve - 3D Mean: 143.4 % change from baseline
  Peak Number—3D Mean: −11.1 % change from baseline
  Peak amplitude - 3D Mean: 139.0 % change from baseline
  Peak width - 3D Mean: 1.4 % change from baseline
  Peak-to-peak interval - 3D Mean: 1.7 % change from baseline
[2]; 10 µM
  Area under the curve - 3D Mean: 135.6 % change from baseline
  Peak Number—3D Mean: 7.2 % change from baseline
  Peak amplitude - 3D Mean: 135.0 % change from baseline
  Peak width - 3D Mean: −1.5 % change from baseline
  Peak-to-peak interval - 3D Mean: 12.8 % change from baseline
[2]; 30 µM
  Area under the curve - 3D Mean: 74.4 % change from baseline
  Peak Number—3D Mean: −3.7 % change from baseline
  Peak amplitude - 3D Mean: 99.9 % change from baseline
  Peak width - 3D Mean: −10.9 % change from baseline
  Peak-to-peak interval - 3D Mean: 8.3 % change from baseline
